Experimental data reported in patent publication US9540361B2, “N-substituted azetidine derivatives” (Merck Sharp & Dohme B.V., priority 2010, dated 2017).
Marks after values point to notes of the source that are not given here.

Key:
[1] = test system: MCF-7H cells; assay: 7-day in vitro proliferation assay in tamoxifen-resistant MCF-7H breast cancer cells (methyl-3H-thymidine incorporation); type: cell-based, human; details: for Efficacy (fractional to E2): fraction of maximal response, E2 = 1.00 per definition; for Efficacy (fractional to E2) / % E2: MCF-7H; for % E2: relative potency to induce proliferation, normalized against E2 (=100 per definition); for induce proliferation of MCF-7H breast cancer cells: potency range and efficacy in words
Experimental: To what extent compounds are capable of stimulating proliferation in ER-positive, tamoxifen-resistant breast cancer cells is tested in a 7-day in vitro proliferation assay using MCF-7H cells. More specifically, this in vitro bioassay is used to determine the efficacy (fraction of maximal response), pEC50, and relative potency of the compound to induce proliferation by comparing the data for this compound with those of the reference compound 17β-estradiol (E2) in the same test.
(§1) A more detailed description of the method used is as follows.
Cell culture: The human epithelial breast cancer cell line MCF-7H (origin: Hubrecht Laboratory, Utrecht, The Netherlands) was routinely maintained in complete medium which is a 1:1 mixture of Ham's F12 medium and Dulbecco's Modified Eagle Medium (DMEM; Invitrogen, Carlsbad, USA) without phenol red and enriched with 5% fetal calf serum (FCS; Hyclone, Utah, USA), 100 μg/ml streptomycin and 100 units/ml penicillin adapted to contain:
Cells were grown in 80 cm^2 culture flasks (Nunc, Roskilde, Denmark) and kept in an atmosphere of 5% CO2-95% air at 37 degrees Celsius. Cells were subcultured when they reached about 80-90% confluence, resulting in one passage a week. Subculturing includes detaching the cells using trypsin/EDTA and diluting the cell suspension 10 times.
Methyl-^3H-thymidine incorporation assay: MCF-7H cells were starved overnight in assay medium containing 5% charcoal-treated (CT) bovine calf serum (BCS; Hyclone) instead of FCS and a final concentration of 1.0 μg/ml bovine insulin, the day before plating. Cells were plated in assay medium containing 5% CT BCS, in white 24-wells plates (Perkin Elmer, Shelton, USA), at a density of 7.5×10^3 cells per well, each well containing 630 μL assay medium. Cells were allowed to attach and spread for 24 h before stimulation with reference and/or test compound(s). After a stimulation period of 7 days, 0.25 μCi/well of methyl-^3H-thymidine (GE Healthcare Limited, Buckinghamshire, UK) was added per well. Cultures were maintained in an atmosphere of 5% CO2-95% air at 37 degrees Celsius. After overnight incubation, excess methyl-^3H-thymidine was aspirated and the cells were washed with phosphate-buffered saline (PBS). After 1 h of incubation with 1 ml scintillation fluid Microscint-20 (Perkin Elmer), radioactivity was measured in a Packard TOP-count NXT microplate scintillation counter (Perkin Elmer).

[2] = biological target: T1, estrogen receptor alpha (Homo sapiens, UniProt P03372); assay: ERα downregulation assay in T47D breast cancer cells (ERα ELISA); type: cell-based; details: 24 hours; for DR (%): downregulation of ERα relative to fulvestrant (100%), 1E-5 M, negative = upregulation
T1 construct: endogenous in cells; host or cells: T47D human breast cancer cells (ATCC)
T1 sequence (P03372 1-595): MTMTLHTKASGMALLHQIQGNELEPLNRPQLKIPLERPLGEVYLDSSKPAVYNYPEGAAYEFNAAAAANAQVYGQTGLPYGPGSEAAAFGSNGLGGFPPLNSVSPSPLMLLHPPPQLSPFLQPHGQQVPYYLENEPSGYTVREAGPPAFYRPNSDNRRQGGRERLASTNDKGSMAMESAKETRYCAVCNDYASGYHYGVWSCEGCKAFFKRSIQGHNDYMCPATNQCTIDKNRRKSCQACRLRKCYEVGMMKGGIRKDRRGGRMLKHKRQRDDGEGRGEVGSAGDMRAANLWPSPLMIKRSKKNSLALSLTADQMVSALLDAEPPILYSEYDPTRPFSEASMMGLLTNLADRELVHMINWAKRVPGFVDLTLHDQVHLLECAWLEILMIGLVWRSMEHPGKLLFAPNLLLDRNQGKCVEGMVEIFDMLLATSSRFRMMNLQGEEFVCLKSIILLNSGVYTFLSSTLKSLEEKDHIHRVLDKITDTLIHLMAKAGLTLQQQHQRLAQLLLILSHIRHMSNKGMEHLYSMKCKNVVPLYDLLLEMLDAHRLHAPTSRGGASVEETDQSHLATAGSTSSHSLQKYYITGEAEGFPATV
Text: More specifically, this in vitro bioassay is used to determine the efficacy (fraction of maximal response) of the compound by comparing the data for this compound with those of the reference compound ICI 182,780 (fulvestrant) in the same test (downregulation of fulvestrant is 100% by definition).
as §1
Cell culture. The human epithelial breast cancer cell line T47D (origin: ATCC) was routinely maintained in a 1:1 mixture of Ham's F12 medium and Dulbecco's Modified Eagle Medium (Gibco) enriched with 5% fetal calf serum (Hyclone), 10 mM HEPES pH 7.5 and 100 μg/ml penicillin-streptomycin solution. Cells were grown in 80 cm2 culture flasks (Nunc, Roskilde, Denmark) and kept in an atmosphere of 5% CO2-95% air at 37 degrees Celsius. Cells were subcultured when they reached about 80-90% confluence, resulting in one passage a week. Subculturing includes detaching the cells using Cell Dissociation Buffer [Sigma] and subsequent inoculation at 1:5 or 1:10 in a new Roux flask (175 cc) and\or plating out in Nunclon™ Surface 96 wells microplates. The culture medium needs to be refreshed on day three or four of the incubation, if applicable.
Determination of ERα protein levels: T47D cells in the microplates are incubated with 1E-5 M test compound for 24 hours. The supernatant in all wells is carefully aspirated. Cells are lysed on the microplate and cell lysates are probed for ERα content using an ERα ELISA assay kit (Active Motif).

[3] = biological target: T2, human estrogen receptor α (hERα) (Homo sapiens, UniProt P03372); assay: antagonistic activity in CHO cells co-transfected with hERα, rat oxytocin promoter and luciferase reporter gene; type: cell-based; details: antagonism of 17β-estradiol-induced transactivation, CHO-hERα-RO-LUC; read-out: ERα pIC50 (converted)
T2 sequence (P03372 1-595): T1 sequence (P03372 1-595)
Experimental: The antagonistic activity of compounds on the estrogen receptors was determined in an in vitro bioassay with recombinant Chinese Hamster Ovary (CHO) cells stably co-transfected with the human estrogen receptor α (hERα), the rat oxytocin promoter (RO) and the luciferase reporter gene (LUC). […] The antagonistic efficacy, i.e. the amount of maximal inhibition of the 17β-estradiol activated receptor by a compound, is expressed as fraction relative to the maximal inhibition as induced by the standard anti-estrogen ICI 164,384 (efficacy test compound=(maximal inhibition test compound/maximal inhibition ICI 164,384)). A more detailed description of the methodology can be found in De Gooyer et al., Steroids, 68 (2003) 21-30.

Row | Structure (SMILES) | Downregulation (% of fulvestrant) ([2]; 1E-5 M test compound, fulvestrant = 100 per definition, negative number = upregulation or stabilization) | DR (%) [2] | IC50 [3] | Efficacy (fractional to E2) [1] | % E2 [1] | induce proliferation of MCF-7H breast cancer cells [1]
1 | C[C@]12CC[C@@H]3c4ccc(O)cc4C[C@@H](CCCCCCCCC[S+]([O-])CCCC(F)(F)C(F)(F)F)[C@H]3[C@@H]1CC[C@@H]2O (some centres unmarked) [Fulvestrant] | 100 ^a % | – | – | 0.02 | 18.9% | –
2 | O=C(c1ccc(OCCN2CCCCC2)cc1)c1c(-c2ccc(O)cc2)sc2cc(O)ccc12 [Raloxifene] | – | – | – | 0.33 | 21.1% | –
3 | COc1ccc(-c2sc3cc(O)ccc3c2Oc2ccc(OCCN3CCCCC3)cc2)cc1 [Arzoxifene] | – | – | – | 0.34 | 99.1% | –
4 | C#C[C@]1(O)CC[C@H]2[C@@H]3CCc4cc(O)ccc4[C@H]3CC[C@@]21C [EE, Ethynyl Estradiol] | – | – | – | 0.99 | 137% | in the picomolar range and with full efficacy
5 | CC/C(=C(\c1ccccc1)c1ccc(OCCN(C)C)cc1)c1ccccc1 [Tamoxifen] | – | – | – | 0.58 | 0.008% | –
6 | CC/C(=C(/c1ccc(OCCN(C)C)cc1)c1cccc(O)c1)c1ccccc1 [Droloxifene] | – | – | – | 0.38 | 5.9% | –
7 | C[C@]12CC[C@@H]3c4ccc(O)cc4CC[C@H]3[C@@H]1CC[C@@H]2O [E2, 17β-estradiol] | – | – | – | 1.00 ^a | 100 ^a % | in the picomolar range and with full efficacy
8 | CC/C(=C(\c1ccc(O)cc1)c1ccc(OCCN(C)C)cc1)c1ccccc1 [4OHT, 4-OH-tamoxifen] | – | – | – | 0.49 | 2.3% | –

Further lines, with some results ahead:

Row | Downregulation (% of fulvestrant) ([2]; 1E-5 M test compound, fulvestrant = 100 per definition, negative number = upregulation or stabilization) | DR (%) [2] | IC50 [3] | Structure (SMILES) | Efficacy (fractional to E2) [1] | % E2 [1] | induce proliferation of MCF-7H breast cancer cells [1]
9 | – | 100% | 7.94 nM | CCCN1CC(Oc2ccc(C(=O)c3c(-c4cccn4C)noc3-c3ccc(O)cc3)cc2)C1.Cl [7al, (5-(4-hydroxyphenyl)-3-(1-methyl-1H-pyrrol-2-yl)isoxazol-4-yl)(4-(1-propylazetidin-3-yloxy)phenyl)methanone hydrochloride] | – | – | –
10 | – | 98% | 2 nM | CCCN1CC(Oc2ccc(C(=O)c3c(-c4sccc4C)noc3-c3ccc(O)cc3)cc2)C1.Cl [compound 7an, (5-(4-hydroxyphenyl)-3-(3-methylthiophen-2-yl)isoxazol-4-yl)(4-(1-propylazetidin-3-yloxy)phenyl)methanone hydrochloride] | – | – | –
11 | – | 82% | 20 nM | CCCN1CC(Oc2ccc(C(=O)c3c(-c4ccccc4Cl)noc3-c3ccc(N)cc3)cc2)C1.O=C(O)C(F)(F)F [compound 7ar, (5-(4-aminophenyl)-3-(2-chlorophenyl)isoxazol-4-yl)(4-(1-propylazetidin-3-yl-oxy)phenyl)methanone 2,2,2-trifluoroacetate] | – | – | –
12 | – | 88% | 2.51 nM | CCCN1CC(Oc2ccc(C(=O)c3c(-c4cccs4)sc4cc(O)ccc34)cc2)C1.Cl [compound 7f, (6-hydroxy-2-(thiophen-2-yl)benzo[b]thiophen-3-yl)(4-(1-propylazetidin-3-yl-oxy)phenyl)methanone hydrochloride] | – | – | –
13 | – | 100% | 3.16 nM | CCCN1CC(Oc2ccc(C(=O)c3c(-c4ccccc4C)noc3-c3ccc(O)cc3)cc2)C1.Cl [compound 7aj, (5-(4-hydroxyphenyl)-3-o-tolylisoxazol-4-yl)(4-(1-propylazetidin-3-yloxy)-phenyl)methanone hydrochloride] | – | – | –
14 | – | 58% | 3.98 nM | CCCN1CC(Oc2ccc([C@H]3c4ccc(O)cc4OC(C)(C)[C@@H]3c3ccccc3)cc2)C1.O=C(O)C(F)(F)F [compound 6p, (3S,4S)-2,2-dimethyl-3-phenyl-4-(4-(1-propylazetidin-3-yloxy)phenyl)chroman-7-ol 2,2,2-trifluoroacetate] | – | – | –
15 | – | 94% | 2 nM | CCCN1CC(Oc2ccc(C(=O)c3c(-c4ccc(O)c(C)c4)sc4cc(O)ccc34)cc2)C1.Cl [compound 7r, (6-hydroxy-2-(4-hydroxy-3-methylphenyl)benzo[b]thiophen-3-yl)(4-(1-propylazetidin-3-yloxy)phenyl)methanone hydrochloride] | – | – | –
16 | – | 30% | 0.794 nM | Cl.O=C(c1ccc(OC2CN(C3CCC3)C2)cc1)c1c(-c2ccc(O)cc2)sc2cc(O)ccc12 [compound 7l, (4-(1-cyclobutylazetidin-3-yloxy)phenyl)(6-hydroxy-2-(4-hydroxyphenyl)-benzo[b]thiophen-3-yl)methanone hydrochloride] | – | – | –
17 | – | 57% | 2 nM | COCCCN1CC(Oc2ccc(C(=O)c3c(-c4ccc(O)cc4)sc4cc(O)ccc34)cc2)C1.O=C(O)C(F)(F)F [compound 7k, (6-hydroxy-2-(4-hydroxyphenyl)benzo[b]thiophen-3-yl)(4-(1-(3-methoxypropyl)azetidin-3-yloxy)phenyl)methanone 2,2,2-trifluoroacetate] | – | – | –
18 | – | 78% | 25.1 nM | CCCN1CC(Oc2ccc(C(=O)c3c(-c4ccccc4Cl)noc3-c3cc[nH]c3)cc2)C1.O=C(O)C(F)(F)F [compound 7aq, (3-(2-chlorophenyl)-5-(1H-pyrrol-3-yl)isoxazol-4-yl)(4-(1-propylazetidin-3-yl-oxy)phenyl)methanone 2,2,2-trifluoroacetate] | – | – | –
19 | – | 66% | 0.501 nM | Cl.Oc1ccc(-c2onc(-c3ccccc3Cl)c2-c2ccc(OC3CN(CC4CCOC4)C3)cc2)cc1 (centres unmarked) [compound 7x, 4-(3-(2-chlorophenyl)-4-(4-(1-((tetrahydrofuran-3-yl)methyl)azetidin-3-yloxy)-phenyl)isoxazol-5-yl)phenol hydrochloride] | – | – | –
